Assay results taken from PubChem BioAssay (NCI).
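Interpolation was linear, between the two tested concentrations surrounding the appropriate level; five concentrations were tested over 48 hours in 96-well plates. The concentration for 50% growth inhibition is given as GI50. TGI marks complete inhibition of growth.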 *1 amine or outer side, *2 acyl side, *3 side chain or, on linkers, in order; H or OH if unused. Where a SMILES comes first, the peptide text is derived from it. Bridges are numbered along the chain shown (N, C = ends). Roman numbers before positions name the chains, in order. [ ]: non-standard residue; d: D form. Actinocin(9to1) = Cc1c2oc3c(C)ccc(C(=O)[*:1])c3nc-2c(C(=O)[*:2])c(N)c1=O; NMeV = CN[CH](C(=O)O)C(C)C; Sar = CNCC(=O)O

Experiments:
Experiment in all cases: inhibition of tumour cell growth, NCI panel, 48 h
[1] = system: BT-549 breast
[2] = system: DU-145 prostate
[3] = system: HT29 colon
[4] = system: LOX IMVI melanoma
[5] = system: MDA-MB-435
[6] = system: NCI/ADR-RES ovarian
[7] = system: OVCAR-5 ovarian
[8] = system: SNB-19 CNS
[9] = system: U251 CNS
[10] = system: SF-539 CNS

| SMILES | TGI [1] | TGI [2] | TGI [3] | TGI [4] | TGI [5] | TGI [6] | TGI [7] | TGI [8] | TGI [9] | TGI [10] | GI50 [1] | GI50 [4] | GI50 [10] | GI50 [8] | GI50 [9] |
| --- | --- | --- | --- | --- | --- | --- | --- | --- | --- | --- | --- | --- | --- | --- | --- |
| N#C[C@H]1C(=O)C(c2nc3ccccc3[nH]2)S[C@H]1c1ccccc1 (stereo not given in full) | 92.4 µM | > 100 µM | > 100 µM | > 100 µM | 87.8 µM | > 100 µM | > 100 µM | > 100 µM | 57.2 µM |  |  |  |  |  |  |
| CC(=O)OCC1(CNc2nc(N)ncc2C#N)CC(CCc2ccccc2)C1 (stereo not given) | > 100 µM | > 100 µM | > 100 µM | > 100 µM | > 100 µM | > 100 µM | > 100 µM |  | > 100 µM | > 100 µM |  |  |  |  |  |
| Cc1cccc(=O)c([O-])c1.Cc1cccc(=O)c([O-])c1.Cc1cccc(=O)c([O-])c1.Cc1cccc(=O)c([O-])c1.[Th+4] |  |  | > 49.4 µM | > 100 µM |  |  | > 100 µM | > 100 µM | > 100 µM | 54.3 µM |  |  |  |  |  |
| Cc1cn([C@@H]2C[C@](C)(CO)N(C)O2)c(=O)[nH]c1=O | > 100 µM | > 100 µM | > 100 µM | > 100 µM | > 100 µM | > 100 µM | > 100 µM | > 100 µM | > 100 µM |  |  |  |  |  |  |
| C=C1C(=O)O[C@H]2[C@H]1CC/C(COC(=O)/C=C/C(=O)OC/C1=C/CC[C@@]3(C)O[C@H]3[C@H]3OC(=O)C(=C)[C@@H]3CC1)=C\CC[C@@]1(C)O[C@@H]21 | 4.41 µM |  |  | 2.4 µM |  |  |  | > 100 µM | 10.8 µM | 7.86 µM | 1.58 µM | 1.07 µM | 2.5 µM | 5.49 µM | 2.82 µM |
| Oc1ccc(O)c(Sc2nnc(CCCCCCCCc3nnc(Sc4cc(O)ccc4O)o3)o2)c1 | > 100 µM | > 100 µM | > 100 µM |  | 35.8 µM | > 100 µM | > 100 µM | > 100 µM | > 100 µM |  |  |  |  |  |  |
| COc1ccc(/C=N/N=C(\N)NO)c(OC)c1OC |  | > 100 µM | > 100 µM | > 100 µM | > 100 µM | 35.4 µM | > 100 µM | > 100 µM | > 100 µM | 61.7 µM |  |  |  |  |  |
| NC(=O)CC[C@H]1C(=O)N=C(N)N1C(=O)OCc1ccccc1 | > 100 µM | > 100 µM | > 100 µM | > 100 µM | > 100 µM | > 100 µM | > 100 µM | > 100 µM | > 100 µM |  |  |  |  |  |  |
| Cc1cc(=O)[nH]c(NN2C(Cl)C(=O)C2c2ccco2)n1 (stereo not given) |  |  | > 100 µM | > 100 µM |  |  | > 100 µM | > 100 µM | > 100 µM | 85.9 µM |  |  |  |  |  |
| O=C(NCCNCCO)N/N=C/c1ccccc1 |  |  | > 100 µM | > 100 µM |  |  |  | > 100 µM | > 100 µM | > 100 µM |  |  |  |  |  |
| COc1ccc(C[C@H]2COC(=O)[C@@H]2Cc2ccccc2)cc1OC |  | > 100 µM | > 100 µM | > 100 µM |  | > 100 µM | > 100 µM | > 100 µM | > 100 µM |  |  |  |  |  |  |
| CN1C(=O)C(CCO)(C(C)(C)C)c2ccccc21 (stereo not given) |  | > 100 µM |  | > 100 µM | > 100 µM | > 100 µM | > 100 µM | > 100 µM | > 100 µM |  |  |  |  |  |  |
| Cc1cn(C2CC(SCCO)C(CO)O2)c(=O)[nH]c1=O (stereo not given) | > 100 µM | > 100 µM | > 100 µM |  | > 100 µM | > 100 µM | > 100 µM | > 100 µM | > 100 µM | > 100 µM |  |  |  |  |  |
| CCCCCCCCCCC[N+]1(Cc2ccccc2)CC2CCN(Cc3ccccc3)CC2C1 (stereo not given) | 1.4 µM | 1.51 µM | 1.71 µM | 1.6 µM |  |  | 2.9 µM | 1.49 µM | 1.11 µM | 2.45 µM |  |  |  |  |  |
| CCOc1ccccc1N=NC1C(=O)N(C(=O)CC(=O)Nc2ccccc2OC)N=C1C (stereo not given) | > 100 µM | > 100 µM | > 100 µM | > 100 µM | > 100 µM | > 100 µM | > 100 µM |  | 95.6 µM | > 100 µM |  |  |  |  |  |
| CCCCNC(=S)Nc1nc(C(=O)NNC(=S)NCc2ccccc2)cs1 | > 100 µM | > 100 µM | > 100 µM | > 100 µM | > 100 µM | > 100 µM | > 100 µM |  | > 100 µM | 68.6 µM |  |  |  |  |  |
| CCn1c(O)c(C(=O)NC(C)c2ccc([N+](=O)[O-])cc2)c(=O)n(CC)c1=S (stereo not given) | 8.8 µM | 8.98 µM | 5.17 µM | 10.9 µM | 13.6 µM |  | 6.77 µM | 10.8 µM | 13.1 µM | 13.4 µM |  |  |  |  |  |
| CCOC(=O)c1c(SCCN2CCCCC2)n(-c2ccccc2)c(=S)n(-c2ccccc2)c1=O | 31.1 µM | > 55.1 µM | 32.1 µM | 26.2 µM | 31.5 µM | 41.7 µM | > 100 µM | > 100 µM | > 68.2 µM |  |  |  |  |  |  |
| O=C(c1ccccc1)c1ccc2nc(-c3c(Cl)c(Cl)c(Cl)c(Cl)c3C(=O)Nc3ccco3)[nH]c2c1 | 74 µM | > 100 µM | > 100 µM | > 100 µM | 42.7 µM | 62.4 µM | > 100 µM | > 100 µM | > 100 µM |  |  |  |  |  |  |
| c1ccc2c(c1)ccc1nc(-c3ccc4c(c3)OCO4)c3c(c12)CCC3 | > 100 µM |  | > 100 µM |  | > 100 µM | > 100 µM | > 100 µM | > 100 µM | > 100 µM | > 100 µM |  |  |  |  |  |
| Cc1c2oc3c(C)ccc(C(=O)NC4C(=O)NC(Cc5ccc(O)cc5)C(=O)N5CCCC5C(=O)N(C)CC(=O)N(C)C(C(C)C)C(=O)OC4C)c3nc-2c(C(=O)NC2C(=O)NC(Cc3ccc(O)cc3)C(=O)N3CCCC3C(=O)N(C)CC(=O)N(C)C(C(C)C)C(=O)OC2C)c(N)c1=O (stereo not given) (I: TYP[Sar][NMeV] / II: TYP[Sar][NMeV]; ester I:1-I:C, II:1-II:C; linker I:N-II:N via Actinocin(9to1); configuration not given here) |  | > 72.7 µM | > 100 µM | 19.9 µM | > 100 µM | > 100 µM | > 43.8 µM | > 56.1 µM | > 48.7 µM | > 100 µM |  |  |  |  |  |
| O=C1/C(=C/C=C/c2ccccc2)CCC1CNc1ccc(Br)cc1 (stereo not given) | > 100 µM | > 100 µM | > 100 µM | > 100 µM | > 100 µM |  | > 100 µM | > 100 µM | > 100 µM | > 100 µM |  |  |  |  |  |
| CC(C)(C)C(=O)O[C@H]1C=C[C@@H](O)[C@@H]2[C@H]1[C@@H]1C=C[C@H]2C1 | > 100 µM | > 100 µM |  | > 100 µM |  | 96.1 µM | 6.42 µM | > 100 µM | > 100 µM | 92.9 µM |  |  |  |  |  |
